Test results reported in patent publication US20040028656A1, “Survival of neurons” (University of South Florida, a non-profit institution, priority 1998, published 2004).

System: hNT neurons
Test: Soma size and neurite outgrowth of TH+ hNT cells (image analysis)
Assay type: cell-based, human
Details: for soma sizes versus control: 5DIV NaCl or KCl-treated cultures; for neurite outgrowth versus control: NaCl and KCl-treated 5DIV
Protocol: The same series of slides immunostained for TH were employed to measure the soma size (μm^2) and neurite outgrowth (μm) of appropriately 50 TH+ cells per representative culture experiment using a computerized image analysis program (Image-Pro Plus, Media Cybernetics, Inc., Silver Springs, Md.) at 20× objective. The results in the morphological assessment study are reported as mean ±SEM and were analyzed using Student's t-test.

Row | Structure (SMILES) | soma sizes versus control | neurite outgrowth versus control
1 | [Cl-].[K+] [KCl] | not significantly different from control | did not significantly differ from control values
2 | [Cl-].[Na+] [NaCl] | not significantly different from control | did not significantly differ from control values
